Experimental data published in patent US4278686A, “Carbapenum derivatives, a process for their preparation and their use in pharmaceutical compositions and intermediates” (Beecham Group Limited, priority 1978, dated 1981).
Read-outs that look alike come from different tables or passages of the source.

Legend:
Type in all cases: cell-based
Citrobacter freundii E8 = assay: minimum inhibitory concentration, Citrobacter freundii E8 (DST agar+10% horse blood)
Description: (§1) The minimum inhibitory concentrations (MIC) of the compound (e54) was determined using a standard DST agar+10% horse blood substrate. The tests used an undiluted inoculum of bacteria. […]
(§2) The minimum inhibitory concentrations (MIC) of this compound was determined using a standard DST agar+10% horse blood substrate.
(§3) The minimum inhibitory concentrations (MIC) of this compound was determined using a standard DST agar+10% horse blood substrate. The tests used an undiluted inoculum of bacteria.

[1] = tested on: Staphylococcus aureus 1517; assay: minimum inhibitory concentration, Staphylococcus aureus 1517 (DST agar+10% horse blood)
Description: as §1, §2, §3

Proteus rettgeri WM16 = assay: minimum inhibitory concentration, Proteus rettgeri WM16 (DST agar+10% horse blood); conditions: Providencia rettgeri
Description: as §1, §2, §3

Proteus vulgaris WO91 = assay: minimum inhibitory concentration, Proteus vulgaris WO91 (DST agar+10% horse blood)
Description: as §1, §2, §3

Proteus mirabilis C977 = assay: minimum inhibitory concentration, Proteus mirabilis C977 (DST agar+10% horse blood)
Description: as §1, §2, §3

[2] = tested on: Salmonella typhimurium CT10; assay: minimum inhibitory concentration, Salmonella typhimurium CT10 (DST agar+10% horse blood); conditions: Salmonella enterica
Description: as §1, §2, §3

Bacillus subtilis A = assay: minimum inhibitory concentration, Bacillus subtilis A (DST agar+10% horse blood); conditions: undiluted inoculum
Description: as §1, §2, §3

[3] = tested on: Streptococcus pyogenes CN10; assay: minimum inhibitory concentration, Streptococcus pyogenes CN10 (DST agar+10% horse blood)
Description: as §1, §2, §3

[4] = tested on: Staphylococcus aureus Oxford; assay: minimum inhibitory concentration, Staphylococcus aureus Oxford (DST agar+10% horse blood)
Description: as §1, §2, §3

Shigella sonnei MB 11967 = assay: minimum inhibitory concentration, Shigella sonnei MB 11967 (DST agar+10% horse blood)
Description: as §1, §2, §3

[5] = tested on: Staphylococcus aureus Russell; assay: minimum inhibitory concentration, Staphylococcus aureus Russell (DST agar+10% horse blood)
Description: as §1, §2, §3

Klebsiella aerogenes A = assay: minimum inhibitory concentration, Klebsiella aerogenes A (DST agar+10% horse blood)
Description: as §1, §2, §3

[6] = tested on: Streptococcus pneumoniae CN33; assay: minimum inhibitory concentration, Streptococcus pneumoniae CN33 (DST agar+10% horse blood); conditions: undiluted inoculum
Description: as §1, §2, §3

Enterobacter cloacae N1 = assay: minimum inhibitory concentration, Enterobacter cloacae N1 (DST agar+10% horse blood)
Description: as §1, §2, §3

Escherichia coli JT 39 = assay: minimum inhibitory concentration, Escherichia coli JT 39 (DST agar+10% horse blood)
Description: as §1, §2, §3

Pseudomonas aeruginosa A = assay: minimum inhibitory concentration, Pseudomonas aeruginosa A (DST agar+10% horse blood)
Description: as §1, §2, §3

E. coli ESS = assay: minimum inhibitory concentration, E. coli ESS (DST agar+10% horse blood); conditions: Escherichia coli
Description: as §1, §2, §3

Serratia marcescens US20 = assay: minimum inhibitory concentration, Serratia marcescens US20 (DST agar+10% horse blood)
Description: as §1, §2, §3

Escherichia coli 0111 = assay: minimum inhibitory concentration, Escherichia coli 0111 (DST agar+10% horse blood)
Description: as §1, §2, §3

Proteus morganii I580 = assay: minimum inhibitory concentration, Proteus morganii I580 (DST agar+10% horse blood); conditions: Morganella morganii, Proteus morganii I580, DST agar+10% horse blood, read-out: MIC
Description: The minimum inhibitory concentrations (MIC) of the compound (e54) was determined using a standard DST agar+10% horse blood substrate. The tests used an undiluted inoculum of bacteria.
Sodium (5R,6S)-3-(2-acetamidoethylthio)--6-ethyl-7-oxo-1-azabicyclo[3.2.0]-hept-2-ene-2-carboxylate [drawing 60] p-Methoxycarbonylbenzyl (5R,6S)-3-(2-acetamidoethylthio)-6-ethyl-7-oxo-1-azabicyclo[3.2.0]hept-2-ene-2-carboxylate (e58) (18 mg) was added to the cathodic compartment of an H-type divided two-compartment electrochemical cell, with a mercury cathode and a platinum anode. The cell contained degassed 0.1 M n-Bu4 NI in dimethylformamide as electrolyte. The volume of the catholyte was about 15 ml [glacial acetic acid (about 10 mg) added] and the volume of the anolyte was about 8 ml. A potentiostat was employed to fix the potential of the cathode at -1.9 V with respect to the standard calomel electrode, and the initial current, about 56 mA, fell to about 15 mA after about 15 min. The catholyte was removed from the cell and the solvent was evaporated in vacuo. The residue was taken up in CH2 Cl2 (10 ml) and washed with water (10 ml). The aqueous phase was separated and washed with CH2 Cl2. The aqueous phase, containing the tetrabutylammonium salt corresponding to (e63) was passed through an Amberlite IR 120 (Na form) column (17×1 cm) and the eluate was reduced to low volume by evaporation in vacuo. The residue was passed through a Biogel P-2 column, to yield fractions containing sodium (5R,6S)-3-(2-acetamidoethylthio)-6-ethyl-7-oxo-1-azabicyclo[3.2.0]hept-2-ene-2-carboxylate (e63) having λmax 298 nm. The minimum inhibitory concentrations (MIC) of this compound was determined using a standard DST agar+10% horse blood substrate.
Sodium (5R,6S)-3-[(E)-2-acetamidoethenylthio]-6-ethyl-7-oxo-1-azabicyclo[3.2.0]hept-2-ene-2-carboxylate [drawing 68] p-Methoxycarbonylbenzyl (5R,6S)-3-[(E)-2-acetamidoethenylthio]-6-ethyl-7-oxo-1-azabicyclo[3.2.0]hept-2-ene-2-carboxylate (e72) (64 mg) in solution in 0.1 M (n-C4 H9)4 NBF4 in dry DMF was added to the cathodic compartment of a divided cylindrical electrochemical cell, with a mercury cathode and platinum anode. The volume of electrolyte in the cathodic compartment was about 25 ml, and in the anodic compartment about 10 ml. Acetic acid (12 mg) was added to the cathodic compartment and ethanol (250 mg) was added to the anodic compartment. The cell was degassed by passing argon for 30 min. The potentiostat was engaged to maintain the potential of the cathode at -1.9 V w.r.t. standard calomel electrode. The initial current (40 mA) fell to about 5 mA after 25 min. The solvent was removed from the catholyte by evaporation in vacuo and the residual oil was taken up in CH2 Cl2 (20 ml) and extracted with water (15 ml) containing sodium tetrafluoroborate (100 mg). The aqueous extract was washed with CH2 Cl2 and then passed down an Amberlite 1R 120 column (1×20 cm) in the sodium form. The volume of the eluate was reduced to about 5 ml by evaporation in vacuo and loaded onto a Biogel P-2 column (18×3 cm). Elution with water yielded fractions containing sodium (5R,6S)-3-[(E)-2-acetamidoethenylthio]-6-ethyl-7-oxo-1-azabicyclo[3.2.0]hept-2-ene-2-carboxylate (e73) λmax 308 nm. The minimum inhibitory concentrations (MIC) of this compound was determined using a standard DST agar+10% horse blood substrate.
Sodium (5R,6R)-3-[(E)-2-acetamidoethenylthio]-6-(1-benzylthioethyl)-7-oxo-1-azabicyclo[3.2.0]hept-2-ene-2-carboxylate [drawing 87] The least polar crystalline isomer of the ester (e93) (40 mg) obtained in Example 70 was added to a mixture of 5% Pd on C (60 mg) in 20% aqueous dioxan (5 ml) which had been prehydrogenated for 0.5 h. Hydrogenation was continued for 4 h and the mixture was filtered through Celite after adding NaHCO3 (7 mg) and water (10 ml). The solution was concentrated to a volume of about 10 ml and was then washed with ethyl acetate (3×30 ml). […]

Streptococcus faecalis I = assay: minimum inhibitory concentration, Streptococcus faecalis I (DST agar+10% horse blood); conditions: Enterococcus faecalis
Description: as §1, §2, §3

[7] = Enterobacter cloacae N1, undiluted inoculum

Structure (SMILES) | MIC (Citrobacter freundii E8; undiluted inoculum) [µg/mL] | MIC ([1]; undiluted inoculum) [µg/mL] | MIC (Proteus rettgeri WM16; undiluted inoculum) [µg/mL] | MIC (Proteus vulgaris WO91; undiluted inoculum) [µg/mL] | MIC (Proteus mirabilis C977; undiluted inoculum) [µg/mL] | MIC ([2]; undiluted inoculum) [µg/mL] | MIC (Bacillus subtilis A) [µg/mL] | MIC ([3]; undiluted inoculum) [µg/mL] | MIC ([4]; undiluted inoculum) [µg/mL] | MIC (Shigella sonnei MB 11967; MB11967, undiluted inoculum) [µg/mL] | MIC ([5]; undiluted inoculum) [µg/mL] | MIC (Klebsiella aerogenes A; undiluted inoculum) [µg/mL] | MIC [6] [µg/mL] | MIC (Enterobacter cloacae N1; [7]) [µg/mL] | MIC (Escherichia coli JT 39; JT39, undiluted inoculum) [µg/mL] | MIC (Pseudomonas aeruginosa A; undiluted inoculum) [µg/mL] | MIC (E. coli ESS; undiluted inoculum) [µg/mL] | MIC (Serratia marcescens US20; undiluted inoculum) [µg/mL] | MIC (Escherichia coli 0111; undiluted inoculum) [µg/mL] | MIC (Proteus morganii I580; undiluted inoculum) [µg/mL] | other results
CSC(C)[C@H]1C(=O)N2C(C(=O)[O-])=C(S/C=C/NC(C)=O)C[C@H]12.[Na+] (single isomer, unassigned) [e101] | 5 | 12.5 | 5 | 5 | 12.5 | 1.2 | 1.2 | 0.2 | 0.5 | 1.2 | 0.5 | 2.5 | 0.1 | 2.5 | 2.5 | 50 | 1.2 | 5 | 2.5 | 12.5 | MIC (Streptococcus faecalis I; undiluted inoculum): 12.5 µg/mL
CC[C@H]1C(=O)N2C(C(=O)[O-])=C(S/C=C/NC(C)=O)C[C@H]12.[Na+] [e54, sodium (5R,6R)-3-[(E)-2-acetamidoethenylthio]-6-ethyl-7-oxo-1-azabicyclo[3.2.0]hept-2-ene-2-carboxylate] | 12.5 | 12.5 | 25 | 25 | 25 | 3.1 | 0.8 | 0.2 | 0.4 | 3.1 | 0.4 | 3.1 | 0.1 | 25 | 3.1 | > 50 | 0.4 | 12.5 | 3.1 | 25 | MIC (Streptococcus faecalis I; undiluted inoculum): 25 µg/mL
CC[C@@H]1C(=O)N2C(C(=O)[O-])=C(SCCNC(C)=O)C[C@H]12.[Na+] [e63, sodium (5R,6S)-3-(2-acetamidoethylthio)-6-ethyl-7-oxo-1-azabicyclo[3.2.0]hept-2-ene-2-carboxylate] | – | – | – | – | – | – | – | – | – | – | – | – | – | – | – | – | – | – | – | – | MIC (Citrobacter freundii E8): 2.5 µg/mL; MIC [1]: 10 µg/mL; MIC (Proteus rettgeri WM16): 10 µg/mL; MIC (Proteus vulgaris WO91): 5 µg/mL; MIC (Proteus mirabilis C977): 10 µg/mL; MIC [2]: 2.5 µg/mL; MIC [3]: 0.1 µg/mL; MIC [4]: 0.6 µg/mL; MIC (Shigella sonnei MB 11967; MB11967): 2.5 µg/mL; MIC [5]: 0.6 µg/mL; MIC (Klebsiella aerogenes A): 1.2 µg/mL; MIC (Enterobacter cloacae N1; Enterobacter cloacae, Enterobactor cloacae N1): 20 µg/mL; MIC (Escherichia coli JT 39; JT39): 10 µg/mL; MIC (Pseudomonas aeruginosa A): > 40 µg/mL; MIC (E. coli ESS): 1.2 µg/mL; MIC (Serratia marcescens US20): 10 µg/mL; MIC (Escherichia coli 0111): 2.5 µg/mL; MIC (Proteus morganii I580): 40 µg/mL; MIC (Streptococcus faecalis I): 40 µg/mL
